# Measurements from ChEMBL document CHEMBL1201862, “PubChem BioAssay data set” (2004).
#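 1) Cells in 96-well plates. 2) Compound, 48 h, 5 concentrations. 3) Linear interpolation between surrounding doses. 4) Unreached endpoint = highest concentration. The concentration for 50% growth inhibition is given as GI50.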 Calls of active or inactive are those of the source. Cut-off read from the data, not from the text of the source: active = GI50 up to about 1.1 µM and inactive = higher.
# How the values were obtained:
# Test in all cases: growth of human tumour cells (NCI), 48 h
# [1] = system: HCT-15
# [2] = system: Hs-578T
# [3] = system: SNB-75
# [4] = system: A549
# [5] = system: SK-MEL-5
# [6] = system: HCC 2998
# [7] = system: RXF 393
# [8] = system: HL-60
# [9] = system: COLO 205
# [10] = system: MDA-N
# [11] = system: SN12C
# [12] = system: PC-3
# [13] = system: OVCAR-5
# [14] = system: A498
# [15] = system: NCI/ADR-RES
# [16] = system: IGROV-1
# [17] = system: EKVX
# [18] = system: SF-539
# [19] = system: SNB-19
SMILES,GI50 [1] [µM],GI50 [2],GI50 [3],GI50 [4],GI50 [5],GI50 [6],GI50 [7],GI50 [8],GI50 [9],GI50 [10],GI50 [11],GI50 [12],GI50 [13],GI50 [14],GI50 [15],GI50 [16],GI50 [17],GI50 [18],GI50 [19]
O=C1C2CC=CCC2C(=O)N1n1c(Cc2ccc(Cl)cc2)n[nH]c1=O (stereo unspecified),> 100,> 100 µM (inactive),> 100 µM (inactive),> 100 µM (inactive),> 100 µM (inactive),> 100 µM (inactive),> 100 µM (inactive),> 100 µM (inactive),> 100 µM (inactive),> 100 µM (inactive),> 100 µM (inactive),> 100 µM (inactive),> 100 µM (inactive),> 100 µM (inactive),> 100 µM (inactive),> 100 µM (inactive),> 100 µM (inactive),–,–
CNC(=O)c1cc(NC(=O)N(CCC#N)CCN(C(=O)N[C@@H](Cc2ccccc2)C(=O)N[C@@H](CC(C)C)C(=O)NC)c2ccccc2)ccc1OC,> 100,58.7 µM (inactive),49.3 µM (inactive),> 100 µM (inactive),29.9 µM (inactive),–,> 54.6 µM (inactive),23.2 µM (inactive),> 100 µM (inactive),> 100 µM (inactive),> 51.6 µM (inactive),> 80 µM (inactive),> 100 µM (inactive),> 49.5 µM (inactive),> 100 µM (inactive),24.4 µM (inactive),> 100 µM (inactive),36 µM (inactive),> 59.2 µM (inactive)
Nc1ccc(CCSSCCc2ccc(N)cc2)cc1,23.4,16.2 µM (inactive),30.9 µM (inactive),35.1 µM (inactive),19.8 µM (inactive),17.6 µM (inactive),21.8 µM (inactive),–,41.1 µM (inactive),27.7 µM (inactive),22.9 µM (inactive),29.4 µM (inactive),29.6 µM (inactive),32.1 µM (inactive),23.2 µM (inactive),37.1 µM (inactive),53.5 µM (inactive),24.9 µM (inactive),50.7 µM (inactive)
O=C1C=CC(=O)N1n1c(-c2ccccc2)n[nH]c1=O,> 100,> 100 µM (inactive),–,> 100 µM (inactive),> 100 µM (inactive),> 100 µM (inactive),> 100 µM (inactive),> 100 µM (inactive),> 100 µM (inactive),> 100 µM (inactive),> 100 µM (inactive),> 100 µM (inactive),> 100 µM (inactive),> 100 µM (inactive),> 100 µM (inactive),> 100 µM (inactive),> 100 µM (inactive),> 100 µM (inactive),–
Cc1ccc(S(=O)(=O)C2=C([Si](C)(C)C)C3CC2[C@@H]2C4C=CC(CC4)[C@H]32)cc1 (stereo partly specified),> 100,39.1 µM (inactive),–,> 100 µM (inactive),> 100 µM (inactive),> 100 µM (inactive),33.5 µM (inactive),> 100 µM (inactive),> 100 µM (inactive),> 100 µM (inactive),> 100 µM (inactive),35.3 µM (inactive),> 100 µM (inactive),> 100 µM (inactive),> 100 µM (inactive),85.5 µM (inactive),> 100 µM (inactive),25.6 µM (inactive),23.8 µM (inactive)
CNC(c1ccncc1)C(NC)c1ccncc1 (stereo unspecified),> 100,90.8 µM (inactive),> 100 µM (inactive),> 100 µM (inactive),> 100 µM (inactive),> 100 µM (inactive),> 100 µM (inactive),> 100 µM (inactive),> 100 µM (inactive),> 100 µM (inactive),> 100 µM (inactive),> 100 µM (inactive),> 100 µM (inactive),> 100 µM (inactive),> 100 µM (inactive),> 100 µM (inactive),> 100 µM (inactive),–,> 100 µM (inactive)
O=C1c2ccccc2NC(=S)[C@@H]2CCCN12,> 100,> 100 µM (inactive),> 100 µM (inactive),> 100 µM (inactive),> 100 µM (inactive),> 100 µM (inactive),> 100 µM (inactive),–,> 100 µM (inactive),> 100 µM (inactive),> 100 µM (inactive),> 100 µM (inactive),> 100 µM (inactive),> 100 µM (inactive),> 100 µM (inactive),> 100 µM (inactive),> 100 µM (inactive),> 100 µM (inactive),> 100 µM (inactive)
CS(=O)(=O)OCCN1CCC2(CC1)SSC1(CCN(CCOS(C)(=O)=O)CC1)S2,> 100,82.6 µM (inactive),99.1 µM (inactive),> 100 µM (inactive),16.1 µM (inactive),–,–,24.3 µM (inactive),28.7 µM (inactive),75.5 µM (inactive),43 µM (inactive),44.7 µM (inactive),24 µM (inactive),0.352 µM (active),> 100 µM (inactive),50.8 µM (inactive),–,27.7 µM (inactive),69.3 µM (inactive)
O=C(O)Cn1cc([N+](=O)[O-])c(=O)c2ccccc21,> 100,> 100 µM (inactive),> 100 µM (inactive),> 100 µM (inactive),> 100 µM (inactive),> 100 µM (inactive),–,> 100 µM (inactive),19.5 µM (inactive),> 100 µM (inactive),> 100 µM (inactive),> 100 µM (inactive),> 100 µM (inactive),> 100 µM (inactive),> 100 µM (inactive),> 100 µM (inactive),–,> 100 µM (inactive),> 100 µM (inactive)
N#Cc1ccc(Nc2nc3[nH]cnc3c(=O)[nH]2)cc1,> 100,> 100 µM (inactive),> 100 µM (inactive),> 100 µM (inactive),> 100 µM (inactive),> 100 µM (inactive),–,> 100 µM (inactive),> 100 µM (inactive),> 100 µM (inactive),> 100 µM (inactive),> 100 µM (inactive),> 100 µM (inactive),> 100 µM (inactive),> 100 µM (inactive),> 100 µM (inactive),> 100 µM (inactive),> 100 µM (inactive),> 100 µM (inactive)
c1ccc2cc(NCNc3ccc4ccccc4c3)ccc2c1,15.6,37.8 µM (inactive),13.2 µM (inactive),18.3 µM (inactive),6.25 µM (inactive),–,10.3 µM (inactive),0.893 µM (active),18.8 µM (inactive),4.33 µM (inactive),9.53 µM (inactive),15.5 µM (inactive),21.3 µM (inactive),19.9 µM (inactive),21.7 µM (inactive),7.52 µM (inactive),14.6 µM (inactive),29.3 µM (inactive),28.1 µM (inactive)
C=CCSc1nc2c(N)ncnc2n1C1OC(CO)C(O)C1O (stereo unspecified),> 100,> 100 µM (inactive),> 100 µM (inactive),> 100 µM (inactive),> 100 µM (inactive),–,> 100 µM (inactive),> 100 µM (inactive),> 100 µM (inactive),> 100 µM (inactive),> 100 µM (inactive),> 100 µM (inactive),> 100 µM (inactive),> 100 µM (inactive),> 100 µM (inactive),> 100 µM (inactive),> 100 µM (inactive),> 100 µM (inactive),> 100 µM (inactive)
CCN(CC)Cc1nc2sc3c(c2c(=O)n1-c1ccccc1)CCCC3,23.8,34.5 µM (inactive),18.4 µM (inactive),20.5 µM (inactive),16.3 µM (inactive),17.6 µM (inactive),18.5 µM (inactive),23.3 µM (inactive),17.7 µM (inactive),19.7 µM (inactive),19.5 µM (inactive),15.9 µM (inactive),19.7 µM (inactive),15.3 µM (inactive),24.8 µM (inactive),18.7 µM (inactive),19.8 µM (inactive),–,35.6 µM (inactive)
O=C(/C=C/c1ccsc1)c1ccc(Cl)s1,43.5,> 100 µM (inactive),> 100 µM (inactive),> 100 µM (inactive),> 100 µM (inactive),31.7 µM (inactive),–,24.8 µM (inactive),> 100 µM (inactive),56.6 µM (inactive),75.3 µM (inactive),> 100 µM (inactive),–,34.5 µM (inactive),> 100 µM (inactive),> 100 µM (inactive),> 100 µM (inactive),> 100 µM (inactive),> 100 µM (inactive)
COC(=O)NC(C(F)(F)F)(C(F)(F)F)P1(=O)OCCCO1,22.8,37.4 µM (inactive),47.6 µM (inactive),38.5 µM (inactive),17.6 µM (inactive),–,2.74 µM (inactive),16.6 µM (inactive),23 µM (inactive),23.2 µM (inactive),34.8 µM (inactive),25.4 µM (inactive),26.1 µM (inactive),17 µM (inactive),39.4 µM (inactive),22.3 µM (inactive),–,21.1 µM (inactive),25.5 µM (inactive)
N#CCCN(CCC#N)c1ccc(C(=N/c2ccc(F)cc2)/N=N/c2ccc(Cl)cc2)cc1,> 100,> 100 µM (inactive),> 100 µM (inactive),> 100 µM (inactive),> 100 µM (inactive),> 100 µM (inactive),> 100 µM (inactive),–,> 100 µM (inactive),> 100 µM (inactive),> 100 µM (inactive),> 100 µM (inactive),> 100 µM (inactive),> 100 µM (inactive),> 100 µM (inactive),> 100 µM (inactive),> 100 µM (inactive),> 100 µM (inactive),> 100 µM (inactive)
